{"source": "paper PMC5672024", "about": "“Selective Glucocorticoid Receptor Properties of GSK866 Analogs with Cysteine Reactive Warheads” (Frontiers in Immunology, 2017)", "system": "recombinant GR-LBD (hGR)", "experiment": "Mass spectrometry of tryptic peptides of recombinant GR-LBD after ligand incubation (covalent binding)", "design": "species or system human", "settings": "2 h at 37°C, trypsin digestion, LC-MS/MS", "description": "Recombinant His6-MBP-mCaspase3 site-LBD-hGR was expressed in the Escherichia coli strain BL21codon + pICA2 that was transformed with the corresponding pLHM36LBD-hGR plasmid and in which expression was induced by Isopropyl β-D-1-thiogalactopyranoside (IPTG) under control of a pL-promotor. The transformed bacteria were grown in Luria Bertani medium supplemented with ampicillin (100 µg/ml) and kanamycin (50 µg/ml) overnight at 28°C before 1/100 inoculation in 12 × 0.5 l provided with Luria Bertani medium supplemented with ampicillin (100 µg/ml) and 1% glycerol in a shaker incubator. The cells were grown to an optical density at AU 600 nm of 0.65, transferred to 20°C and expression was induced by addition of 1 mM IPTG overnight. Cells were then harvested and frozen at −20°C. […] After thawing, the cells were re-suspended at 3 ml/g in cold 20 mM Tris-HCl pH 7.4, 200 mM NaCl, 1 mM EDTA, 1 tablet complete protease inhibitor cocktail from Roche/50 ml, and 10 mM β-mercaptoethanol. The cytoplasmic fraction was prepared by sonication of the cells on ice and isolated by centrifugation at 18,000 × g for 30 min. All further purification steps were conducted at 4°C. The clear supernatant was applied to an amylase column (BioLabs, XK26 × 20, 100 ml), equilibrated with 20 mM Tris–HCl pH 7.4, 200 mM NaCl, 1 mM EDTA, and 10 mM β-mercaptoethanol. The column was eluted with 20 mM Tris–HCl pH 7.4, 200 mM NaCl, 1 mM EDTA, 10 mM maltose, and 10 mM β-mercaptoethanol. […] Recombinant purified His-MBP-DEVD-GR-LBD fusion protein was dissolved at a concentration of 1 mg in 1.7 ml PBS buffer.\nEach aliquot was incubated 2 h at 37°C. […] 120 µl of each sample was loaded onto a spin column and the flow-through was collected (1,500 × g, 2 min). Trypsin (5 µl of 20 mM stock solution) was added, and the samples were incubated 20 h at 37°C. Then, 0.1% FA (formic acid) (41.5 µl) and 20 mM TCEP in 0.1% FA (18.5 µl, 5.7 mg TCEP/ml) were added [final volume = 185 µl, final concentration TCEP = 2 mM, 1 µg material/2.5 μl], and the samples were subjected to LC–MS/MS analysis.\nThe obtained peptide mixtures were introduced onto an LC–MS/MS system; the Ultimate 3000 RSLC nano (Dionex, Amsterdam, The Netherlands) in-line connected to an LTQ-Orbitrap Velos (Thermo Fisher Scientific, Bremen, Germany). The sample mixture was loaded on a trapping column [made in-house, 100 µm internal diameter (I.D.) × 20 mm, 5 µm C18 beads (Reprosil-HD, Dr. Maisch)]. After back flushing from the trapping column, the sample was loaded on a reverse-phase column [made in-house, 75 µm I.D. × 150 mm, 5 µm C18 beads (Reprosil-HD, Dr. Maisch)].\nThe mass spectrometer was operated in data-dependent mode, automatically switching between MS and MS/MS acquisition for the 10 most abundant peaks in a given MS spectrum. […]"}
{"smiles": "CCN(C[C@@](O)(CNC(=O)c1cnn(-c2ccc(F)cc2)c1N)C(F)(F)F)C(=O)c1c(Cl)ccc(NC(=O)CCl)c1Cl", "note": "[UAMC-1217]", "values": [{"measurement": "Modifications: GR-LBD cysteine-containing peptide covalently bound", "result": "Cys-622"}, {"measurement": "Modifications: GR-LBD cysteine-containing peptide covalently bound", "setting": "listed as 1217", "result": "Peptide 615–633 → C622"}]}
